From BindingDB's records for doi:10.1021/jm060996+ (Merck Research Laboratories, 2006)

target: Cannabinoid receptor 2 (Homo sapiens, UniProt P34972); assay: Inhibition of [3H]CP-55940 binding to human recombinant CB2 receptor in CHO cells
Sequence (P34972 whole entry): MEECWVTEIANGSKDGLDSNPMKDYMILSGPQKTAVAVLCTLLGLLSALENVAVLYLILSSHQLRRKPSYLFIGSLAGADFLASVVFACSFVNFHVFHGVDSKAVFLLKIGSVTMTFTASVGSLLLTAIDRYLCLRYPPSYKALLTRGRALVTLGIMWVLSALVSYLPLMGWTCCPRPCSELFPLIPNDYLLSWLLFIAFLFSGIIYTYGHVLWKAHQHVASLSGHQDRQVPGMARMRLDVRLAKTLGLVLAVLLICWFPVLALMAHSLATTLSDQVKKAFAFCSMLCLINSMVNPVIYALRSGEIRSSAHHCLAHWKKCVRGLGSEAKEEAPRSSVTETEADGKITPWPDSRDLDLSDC

How did the IC50 turn out when `C[C@H](NC(=O)C(C)(C)Oc1ccc(Cl)cc1)[C@@H](Cc1ccc(Cl)cc1)c1ccc(Cl)cc1` [(1S,2S)N-[2,3-bis(4-chlorophenyl)-1-methylpropyl]-2-(4-chlorophenyloxy)-2-methylpropanamide] was run?
The IC50 was greater than 2000 nM.

For `C[C@H](NC(=O)C(C)(C)Oc1cc(F)cc(F)c1)[C@@H](Cc1ccc(Cl)cc1)c1ccccc1` [N-((2S,3S)-4-(4-chlorophenyl)-3-phenylbutan-2-yl)-2-(3,5-difluorophenoxy)-2-methylpropanamide], which IC50 is on record?
The IC50 was 200 nM.

Which IC50 does the source give for `C[C@H](NC(=O)C(C)(C)Oc1ccc(C(F)(F)F)cn1)[C@@H](Cc1ccc(Cl)cc1)c1ccccc1` [N-((2S,3S)-4-(4-chlorophenyl)-3-phenylbutan-2-yl)-2-methyl-2-(5-(trifluoromethyl)pyridin-2-yloxy)propanamide] here?
The IC50 was 140 nM.

`C[C@H](NC(=O)C(C)(C)Oc1ccccc1)[C@@H](Cc1ccc(Cl)cc1)c1ccccc1` [N-((2S,3S)-4-(4-chlorophenyl)-3-phenylbutan-2-yl)-2-methyl-2-phenoxypropanamide] was tested. Which IC50 did it give?
Its IC50 is 450 nM.

With `CC(NC(=O)C(C)(C)Oc1ccc(Cl)cc1)C(Cc1ccc(Cl)cc1)c1ccc(Cl)cc1` (stereo not given) [N-[2,3-bis(4-chlorophenyl)-1-methylpropyl]-2-(4-chlorophenyloxy)-2-methylpropanamide] as the molecule, how does the IC50 read?
The IC50 was 1100 nM.

With `CC(NC(=O)C(C)(C)Oc1ccc(Cl)cc1)C(Cc1ccc(Cl)cc1)c1ccccc1` (stereo not given) [N-[3-(4-chlorophenyl)-1-methyl-2-phenylpropyl]-2-(4-chlorophenyloxy)-2-methylpropanamide] as the molecule, how does the IC50 read?
Its IC50 is 610 nM.

Which IC50 does the source give for `C[C@H](NC(=O)C(C)(C)Oc1ccccn1)[C@@H](Cc1ccc(Cl)cc1)c1ccccc1` [N-[(1S,2S)-3-(4-chlorophenyl)-1-methyl-2-phenyl-propyl]-2-(2-pyridyloxy)-2-methylpropanamide] here?
The IC50 was 88 nM.

Which IC50 does the source give for `C[C@H](NC(=O)C(C)(C)Oc1cccc(Cl)c1)[C@@H](Cc1ccc(Cl)cc1)c1ccccc1` [N-[(1S,2S)-3-(4-chlorophenyl)-1-methyl-2-phenylpropyl]-2-(3-chlorophenyloxy)-2-methylpropanamide] here?
Its IC50 is 190 nM.

For `C[C@H](NC(=O)C(C)(C)Oc1cccc(F)c1)[C@@H](Cc1ccc(Cl)cc1)c1ccccc1` [N-[(1S,2S)-3-(4-chlorophenyl)-1-methyl-2-phenylpropyl]-2-(3-fluorophenyloxy)-2-methylpropanamide], which IC50 is on record?
Its IC50 is 290 nM.

How did the IC50 turn out when `C[C@H](NC(=O)C(C)(C)Oc1ccc(Cl)cn1)[C@@H](Cc1ccc(Cl)cc1)c1ccccc1` [N-[(1S,2S)-3-(4-chlorophenyl)-1-methyl-2-phenylpropyl]-2-[(5-chloro-2-pyridin-2-yl)oxy]-2-methylpropanamide] was run?
The IC50 was 100 nM.
